Source: PubChem BioAssay (NCI)
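1) Cells in 96-well plates. 2) Compound, 48 h, 5 concentrations. 3) Linear interpolation between surrounding doses. 4) Unreached endpoint = highest concentration. GI50 marks 50% less growth. TGI: total growth inhibition.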

What was measured:
Assay in all cases: NCI tumour cell line growth inhibition, 48 h
NCI-H460 lung = system: NCI-H460 lung
MDA-MB-435 = system: MDA-MB-435
SNB-19 CNS = system: SNB-19 CNS
NCI-H522 lung = system: NCI-H522 lung
UO-31 renal = system: UO-31 renal
HCC-2998 colon = system: HCC-2998 colon
CCRF-CEM leukemia = system: CCRF-CEM leukemia
KM12 colon = system: KM12 colon
NCI-H226 lung = system: NCI-H226 lung
SNB-75 CNS = system: SNB-75 CNS
MOLT-4 leukemia = system: MOLT-4 leukemia
TK-10 renal = system: TK-10 renal
OVCAR-3 ovarian = system: OVCAR-3 ovarian
LOX IMVI melanoma = system: LOX IMVI melanoma
RPMI-8226 leukemia = system: RPMI-8226 leukemia
SN12C renal = system: SN12C renal
SF-295 CNS = system: SF-295 CNS
COLO 205 colon = system: COLO 205 colon
ACHN renal = system: ACHN renal
OVCAR-4 ovarian = system: OVCAR-4 ovarian
HOP-62 NSCLC = system: HOP-62 NSCLC
OVCAR-8 ovarian = system: OVCAR-8 ovarian
IGROV1 ovarian = system: IGROV1 ovarian
HT29 colon = system: HT29 colon
UACC-257 melanoma = system: UACC-257 melanoma
SK-MEL-5 melanoma = system: SK-MEL-5 melanoma
OVCAR-5 ovarian = system: OVCAR-5 ovarian
MCF7 breast = system: MCF7 breast

`CC(C)=CCNc1ncnc2c1ncn2C1OC(COP(=O)(O)O)C(O)C1O` (stereo unspecified) was tested, and the GI50 (NCI-H460 lung) was 7.24 µM, the TGI (NCI-H460 lung) was > 100 µM and the GI50 (MDA-MB-435) was 6.68 µM. For the same molecule, the TGI (MDA-MB-435) was > 100 µM, the GI50 (SNB-19 CNS) was 26.3 µM and the TGI (SNB-19 CNS) was > 100 µM. For the same molecule, the GI50 (NCI-H522 lung) was 4.8 µM, the TGI (NCI-H522 lung) was 89.4 µM and the GI50 (UO-31 renal) was 4.1 µM. The TGI (UO-31 renal) was > 52 µM, the GI50 (HCC-2998 colon) was 10.7 µM and the TGI (HCC-2998 colon) was > 100 µM. For the same molecule, the GI50 (CCRF-CEM leukemia) was 3.32 µM, the TGI (CCRF-CEM leukemia) was > 100 µM and the GI50 (KM12 colon) was 20.1 µM. For the same molecule, the TGI (KM12 colon) was > 100 µM, the GI50 (NCI-H226 lung) was 4.7 µM and the TGI (NCI-H226 lung) was 33.9 µM. The GI50 (SNB-75 CNS) was 2.06 µM, the TGI (SNB-75 CNS) was 34.1 µM and the GI50 (MOLT-4 leukemia) was 4.22 µM. The TGI (MOLT-4 leukemia) was > 48.5 µM, the GI50 (TK-10 renal) was 2.06 µM and the TGI (TK-10 renal) was 5.59 µM. It also gave a GI50 (OVCAR-3 ovarian) of 2.13 µM, a TGI (OVCAR-3 ovarian) of 4.41 µM and a GI50 (LOX IMVI melanoma) of 0.581 µM. For the same molecule, the TGI (LOX IMVI melanoma) was 2.55 µM, the GI50 (RPMI-8226 leukemia) was 42.8 µM and the TGI (RPMI-8226 leukemia) was > 100 µM. The GI50 (SN12C renal) was 3.94 µM, the TGI (SN12C renal) was > 100 µM and the GI50 (SF-295 CNS) was 5.8 µM. For the same molecule, the TGI (SF-295 CNS) was 34 µM, the GI50 (COLO 205 colon) was 4.59 µM and the TGI (COLO 205 colon) was > 58.8 µM. The GI50 (ACHN renal) was 3.08 µM, the TGI (ACHN renal) was > 100 µM and the GI50 (OVCAR-4 ovarian) was 5.01 µM. The TGI (OVCAR-4 ovarian) was 34.3 µM, the GI50 (HOP-62 NSCLC) was 23.5 µM and the TGI (HOP-62 NSCLC) was > 100 µM. The GI50 (OVCAR-8 ovarian) was 1.6 µM, the TGI (OVCAR-8 ovarian) was 3.64 µM and the GI50 (IGROV1 ovarian) was 11 µM. For the same molecule, the TGI (IGROV1 ovarian) was > 100 µM, the GI50 (HT29 colon) was 3.74 µM and the TGI (HT29 colon) was 42.5 µM. For the same molecule, the GI50 (UACC-257 melanoma) was > 100 µM, the TGI (UACC-257 melanoma) was > 100 µM and the GI50 (SK-MEL-5 melanoma) was > 73.7 µM. For the same molecule, the TGI (SK-MEL-5 melanoma) was > 100 µM, the GI50 (OVCAR-5 ovarian) was 32.9 µM and the TGI (OVCAR-5 ovarian) was > 100 µM. The GI50 (MCF7 breast) was 1.72 µM and the TGI (MCF7 breast) was > 91.3 µM.
